These results are taken from ChEMBL document CHEMBL3396985, “Nanomolar inhibitors of Mycobacterium tuberculosis glutamine synthetase 1: synthesis, biological evaluation and X-ray crystallographic studies” (Bioorg Med Chem Lett, 2015).

Data set [1] is described as follows: Inhibition of Mycobacterium tuberculosis glutamine synthetase 1 assessed as reduction in ADP formation incubated 1 hr in presence of glutamate, ammonium chloride and ATP.
The test system of data set [2] is Mycobacterium tuberculosis. As to the kind of experiment: Antimycobacterial activity against Mycobacterium tuberculosis assessed as inhibition of microbial proliferation after 6 days by cell titer blue reagent based assay. The format is functional. The note with it: 144 h. A general note: The colour change of resazurin is a common sign of viable cells or microbes.

A further data set relates to HepG2. The experiment in a line: Cytotoxicity against human HepG2 cells after 40 hrs by celltiter Glo assay. The class given is cell-based. As to conditions: HepG2, 40 h. Background: In ATP-based viability assays light output follows the ATP content of the culture.
A short description of data set [3]: Lipophilicity, log D of the compound. The class given is physicochemical. As to conditions: octanol/water.
For data set [4], the system named is Mycobacterium tuberculosis. As to the kind of experiment: microbe, parasite or virus in culture. As to conditions: H37Rv ATCC 25618.
Description: Antimycobacterial activity against Mycobacterium tuberculosis H37Rv ATCC 25618 assessed as inhibition of microbial proliferation
The test system of data set [5] is Mycobacterium tuberculosis. As to the kind of experiment: ATP competitive inhibition of Mycobacterium tuberculosis glutamine synthetase 1 assessed as reduction in ADP formation incubated 1 hr in presence of glutamate, ammonium chloride and ATP.

In brackets after ≈: the same amount, converted by molar mass. Activity calls are given as the source filed them. The calls are words filed in the database; no cut-off is given here. Some results are limits rather than exact numbers.

Usually IC50 stands for the concentration that inhibits the measured activity by half. The IC80 is the point of the concentration-response curve where the effect stands at 80%. A word on the logD: it is lipophilicity at a set pH, counting ionised and neutral species. Low readings indicate a more hydrophilic compound, high ones a more lipophilic compound.

Regarding `O=c1c2nccn2c2c(n1C1CC1)-c1cccc(-c3ccccn3)c1C2`, the IC50 in data set [1] came to 0.456 µM. In data set [2], the 80% effect concentration (IC80) is over 30 µM and the MIC is over 30 µM. The compound also came in with an IC50 with HepG2 of over 30 µM.
For `O=c1[nH]c2c(n3ccnc13)Cc1c(-c3cccc(Cl)c3)cccc1-2`, the IC50 in data set [1] came to 0.61 µM. Further, in data set [2], the IC80 stood at 22 µM and the MIC was found to be 22 µM. In the data set on HepG2, the IC50 was found to be 15 µM. Besides, in data set [3], the logD was found to be 2.38.
In data set [4], `C[S@](=N)(=O)CC[C@H](N)C(=O)O` gave an MIC of 10 µM (≈ 1.8 µg/mL).
Take `O=c1[nH]c2c(n3ccnc13)Cc1c-2cccc1-c1cccc2ncccc12`: in data set [1], the IC50 is 7 µM. Besides, in data set [2], the IC80 was over 30 µM and the MIC was over 30 µM. The IC50 in the data set with HepG2 is over 30 µM. This compound also displayed a logD in data set [3] of 1.02.
Regarding `COCCn1c2c(n3ccnc3c1=O)Cc1c(-c3ccccc3)cccc1-2`, the IC50 in data set [1] was 0.219 µM. In addition, in data set [2], the IC80 is over 30 µM and the MIC is over 30 µM. Further, in the data set on HepG2, the IC50 was found to be 23 µM.
For the compound `CN(C)CCCn1c2c(n3ccnc3c1=O)Cc1c(-c3cccnc3)cccc1-2`, the IC50 is 0.131 µM in data set [1] and over 30 µM in the data set with HepG2. In data set [2], the concentration for an effect of 80% (IC80) is over 30 µM. For the same compound, the MIC in data set [2] was over 30 µM.
`COc1cccc(-c2cccc3c2Cc2c-3n(CCCN(C)C)c(=O)c3nccn23)c1`: the IC50 in data set [1] was 0.084 µM. In data set [2], the IC80 was over 30 µM and the MIC was over 30 µM. In the data set on HepG2, the IC50 is 15 µM.
With `CC(=O)Nc1cccc2c1Cc1c-2[nH]c(=O)c2nccn12`, the IC50 in data set [1] turned out to be 2.1 µM. In data set [2], the IC80 is over 30 µM and the MIC is over 30 µM. In the data set on HepG2, this compound registered an IC50 of over 30 µM.
On to `O=c1c2nccn2c2c(n1Cc1ccccc1)-c1cccc(-c3ccccc3)c1C2`, for which the IC50 in data set [1] was found to be 0.663 µM. In addition, in data set [2], the IC80 amounted to 29 µM and the MIC worked out at 29 µM. This compound had an IC50 in the data set on HepG2 of 20 µM. In addition, the logD in data set [3] worked out at 3.33.
Turning to `Cn1c2c(n3ccnc3c1=O)Cc1c(-c3ccccc3)cccc1-2`, the IC50 in data set [1] was 0.17 µM; in the data set with HepG2, over 30 µM. In addition, the IC80 in data set [2] is over 30 µM. The MIC in data set [2] is over 30 µM. For the same compound, the logD in data set [3] turned out to be 2.25.
As for `O=c1[nH]c2c(n3ccnc13)Cc1c(-c3ccccc3)cccc1-2`, the results for the IC50 (in data set [1]; with HepG2) were 0.031 µM and over 30 µM, respectively. Moreover, in data set [2], the IC80 is over 30 µM. The MIC in data set [2] is over 30 µM. Besides, the inhibition entry in data set [5] was “Active”. In addition, the logD in data set [3] stood at 3.52.
In the case of `C=CCn1c2c(n3ccnc3c1=O)Cc1c(-c3ccccc3)cccc1-2`, the IC50 in data set [1] was 0.333 µM. Also, in data set [2], the IC80 is over 30 µM and the MIC is over 30 µM. This compound also returned an IC50 with HepG2 of over 30 µM. Besides, in data set [3], the logD came to 2.7.
Regarding `COc1cccc(-c2cccc3c2Cc2c-3[nH]c(=O)c3nccn23)c1`, the IC50 in data set [1] came out at 0.051 µM. In addition, in data set [2], the IC80 was over 30 µM and the MIC is over 30 µM. The same compound showed an IC50 with HepG2 of over 30 µM. The logD in data set [3] is 1.87.
As to `O=c1[nH]c2c(n3ccnc13)Cc1c(Br)cccc1-2`, the concentration for half-maximal inhibition (IC50) in data set [1] was over 0.03 µM. Moreover, in data set [2], the IC80 is over 30 µM and the MIC was over 30 µM. The IC50 in the data set with HepG2 is over 30 µM. In addition, the logD in data set [3] turned out to be 1.77.
For `CN(C)CCCn1c2c(n3ccnc3c1=O)Cc1c(-c3ccccn3)cccc1-2`, the IC50 in data set [1] is 0.857 µM. In addition, in data set [2], the IC80 was over 30 µM and the MIC is over 30 µM. The IC50 in the data set on HepG2 was over 30 µM.
Regarding `C=CCCn1c2c(n3ccnc3c1=O)Cc1c(-c3cccnc3)cccc1-2`, in data set [1], the IC50 was determined as 0.007 µM. Moreover, in data set [2], the IC80 was over 30 µM and the MIC was over 30 µM. Also, the IC50 in the data set with HepG2 was over 30 µM.
`CC(C)Cn1c2c(n3ccnc3c1=O)Cc1c(-c3cccnc3)cccc1-2`: the concentration for half-maximal inhibition (IC50) in data set [1] was 0.066 µM. Also, in data set [2], the IC80 is over 30 µM and the MIC is over 30 µM. Also, the IC50 in the data set with HepG2 is over 30 µM.
Take `O=c1[nH]c2c(n3ccnc13)Cc1c(-c3cccnc3)cccc1-2`: in data set [1], the IC50 amounted to 0.031 µM. Also, in data set [2], the IC80 came out at 29 µM and the MIC came to 29 µM. This compound showed an IC50 in the data set with HepG2 of over 30 µM. The logD in data set [3] is 0.26.
